Test results as given in PMC12519282, “Reduction of Negative Charge in Mercaptoacetyl-Based Chelators Influences the Biodistribution of Prostate-Specific Membrane Antigen-Targeting Pseudopeptides Labeled with Technetium-99m” (ACS Pharmacology & Translational Science, 2025).
Where two headings read alike, the source gives them in different places. Marks after values point to notes of the source that are not given here.

Tests used:
PC3-pip cells [1] = test: cellular processing (membrane-bound / internalized activity); type: cell-based; settings: 2 nM, continuous incubation, after 8 h
Procedure: To evaluate cellular processing of technetium-99m-labeled BQ0500 and BQ0501, PC3-pip cells were incubated with the radiolabeled tracer (2 nM), and at 1, 2, 4, and 8 h of continuous incubation, the membrane-bound and internalized fractions were collected as previously described using 4 M urea solution in 0.2 M glycine buffer (pH 2) to collect membrane-bound fraction and 1 N solution of NaOH to collect the internalized fraction. The activity in the samples was measured, and the percentage of membrane-bound and internalized activity was calculated. The experiments were performed in triplicate.

PC3-pip xenografts = test: biodistribution and tumor targeting in PC3-pip tumor-bearing mice; type: in vivo
Text: The injected masses for the in vivo experiments were chosen based on the findings for [^99mTc]-Tc-BQ0413: to study the general biodistribution of radiolabeled tracers in normal mice (NMRI), 40 pmol of tracer was used to avoid blocking of PSMA-mediated uptake in kidneys and salivary glands, to study tumor targeting, 5 nmol of tracer was used to decrease uptake in PSMA-expressing organs.
PSMA-expressing PCa xenografts were implanted in BALB/c nu/nu mice by subcutaneous injection of the PC3-pip cell suspension in PBS (10^7 cells/animal in 100 μL). The average animal weight in the experiment was 18 ± 2 g. The average tumor weight was 0.4 ± 0.2 g. For in vivo specificity control, 10^7 cells/animal PSMA-negative PC-3 cells were implanted. The average animal weight was 18 ± 1 g. The average tumor weight was 0.1 ± 0.1 g. Four mice per data point were used in the in vivo experiments.
For tumor-bearing mice, each mouse was intravenously injected with 5 nmol of [^99mTc]-Tc-BQ0413, [^99mTc]-Tc-BQ0500, and [^99mTc]-Tc-BQ0501 (60 kBq; the mass of the injected compound was adjusted with an unlabeled tracer). The mice were euthanized after lethal intraperitoneal injection of ketamine/xylazine, followed by exsanguination 1 and 3 h pi, similarly to the procedure described above.

physchem = type: physicochemical; settings: pH 7.4
Procedure: (§1) To evaluate the label’s stability, 10 μL (0.25 μg) of radiolabeled conjugates was incubated with 300× molar excess of cysteine or with PBS for 1 h at room temperature. The test was run in triplicate. The release of free technetium-99m was controlled by using iTLC and radio-HPLC analysis. The stability in serum was analyzed by mixing the radioconjugates (0.25 μg in 10 μL) with murine serum or PBS (40 μL) as a control. The samples were incubated for 1 h at 37 °C and analyzed by iTLC. The experiment was performed in triplicate. The octanol–water distribution coefficient (Log D) was determined experimentally by the addition of 100 pmol of the radiolabeled tracer to an Eppendorf tube containing PBS (500 μL) and n-octanol (500 μL), pH ∼ 7.4. The solution was vortexed and centrifuged, and aliquots (50 μL) from each phase were collected and measured using a gamma counter. The experiment was performed in triplicate.

[2] = type: in vitro ADME, murine; settings: 1 h
Procedure: as §1

PSMA = molecular target: T1, PSMA (Homo sapiens, UniProt Q04609); test: binding kinetics in real time on living PC3-pip cells (LigandTracer Yellow)
T1 construct: expressed in transfected cells; host or cells: PC3-pip (PSMA-transfected PC-3 prostate carcinoma cells), from Prof; Martin G. Pomper, Johns Hopkins University
Procedure: The binding kinetics of technetium-99m-labeled BQ0413, BQ0500, and BQ0501 were determined in PC3-pip cells in real-time using LigandTracer Yellow (Ridgeview Instruments AB, Uppsala, Sweden). The activity binding was recorded with 5 nM radiolabeled tracers for 150 min. After the binding kinetics were measured, the medium containing the labeled tracer was replaced with fresh medium, and the dissociation was monitored over 7 h. The association rate (k a) and the dissociation rate (k d) were computed using a 1:2 kinetic binding model in TraceDrawer software (Ridgeview Instruments AB, Uppsala, Sweden), and the equilibrium dissociation constant K D was calculated.

PC3-pip cells [3] = test: in vitro binding specificity test; type: cell-based; settings: 1 h, 37 °C
Procedure: For the in vitro binding specificity test, approximately 8 × 10^5 PC3-pip cells per well were seeded 24 h before the experiment. […] Technetium-99m-labeled tracers were added to each well to reach a concentration of 2 nM. After 1 h of incubation at 37 °C, cells were washed with PBS solution, detached, and collected. Cell-associated activity was measured using a gamma counter and presented as the percentage of added activity.

[4] = PC3-pip tumor-bearing mice, 5 nmol/mouse iv, 1 h pi
[5] = PC3-pip tumor-bearing mice, 5 nmol/mouse iv, 3 h pi
[6] = PC3-pip tumor-bearing mice, 5 nmol/mouse iv, 3 h pi, listed as [99mTc]Tc-BQ0501

T1 sequence (Q04609 whole entry): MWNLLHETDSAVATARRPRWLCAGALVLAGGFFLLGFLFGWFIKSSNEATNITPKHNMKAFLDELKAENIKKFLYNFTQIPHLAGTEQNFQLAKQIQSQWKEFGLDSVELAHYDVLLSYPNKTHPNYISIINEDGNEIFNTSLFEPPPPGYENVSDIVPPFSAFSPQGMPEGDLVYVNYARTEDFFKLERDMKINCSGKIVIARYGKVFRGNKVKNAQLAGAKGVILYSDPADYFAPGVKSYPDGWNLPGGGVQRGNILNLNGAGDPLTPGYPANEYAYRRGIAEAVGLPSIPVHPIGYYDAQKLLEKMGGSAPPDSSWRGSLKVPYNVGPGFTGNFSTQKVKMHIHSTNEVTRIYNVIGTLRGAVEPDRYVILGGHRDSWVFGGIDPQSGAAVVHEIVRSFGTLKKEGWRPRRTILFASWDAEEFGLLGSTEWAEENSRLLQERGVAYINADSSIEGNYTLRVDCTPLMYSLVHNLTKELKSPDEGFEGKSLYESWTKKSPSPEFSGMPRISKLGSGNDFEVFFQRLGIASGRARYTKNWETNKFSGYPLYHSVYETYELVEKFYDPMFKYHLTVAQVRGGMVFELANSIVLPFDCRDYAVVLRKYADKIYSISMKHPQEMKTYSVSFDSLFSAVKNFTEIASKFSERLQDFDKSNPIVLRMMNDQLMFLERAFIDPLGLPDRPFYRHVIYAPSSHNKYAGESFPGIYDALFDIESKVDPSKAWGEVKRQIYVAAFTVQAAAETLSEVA

CC(=O)NC(CCCCNC(=O)CNC(=O)C(CO)NC(=O)C(CO)NC(=O)C(CO)NC(=O)CS)C(=O)NCCCCCCCC(=O)NC(Cc1ccc(O)cc1)C(=O)NC(Cc1ccc2ccccc2c1)C(=O)NCCCCC(NC(=O)NC(CCC(=O)O)C(=O)O)C(=O)O (centres unmarked) [[^99mTc]Tc-BQ0501, metal not drawn]
maximum of internalized activity (PC3-pip cells [1]): 42–43 % of cell-associated activity
activity in carcass (PC3-pip xenografts; [4]): 8 ± 2 ^b %IA/sample
activity in intestines with content (PC3-pip xenografts; [4]): 9 ± 1 ^b ^e %IA/sample
activity uptake in blood (PC3-pip xenografts; [4]): 1.6 ± 0.5 ^b %IA/g
activity uptake in bone (PC3-pip xenografts; [4]): 0.4 ± 0.1 ^b ^e %IA/g
activity uptake in kidney (PC3-pip xenografts; [4]): 21 ± 6 ^b %IA/g
activity uptake in liver (PC3-pip xenografts; [4]): 1.8 ± 0.7 ^b %IA/g
activity uptake in lung (PC3-pip xenografts; [4]): 1.6 ± 0.4 ^b %IA/g
activity uptake in muscle (PC3-pip xenografts; [4]): 0.3 ± 0.1 ^b %IA/g
activity uptake in pancreas (PC3-pip xenografts; [4]): 0.45 ± 0.05 ^b %IA/g
activity uptake in salivary gland (PC3-pip xenografts; [4]): 0.6 ± 0.2 ^b ^, ^e %IA/g
activity uptake in small intestines (PC3-pip xenografts; [4]): 1.4 ± 0.6 ^b ^e %IA/g
activity uptake in spleen (PC3-pip xenografts; [4]): 2.4 ± 0.5 ^b %IA/g
activity uptake in stomach (PC3-pip xenografts; [4]): 0.6 ± 0.2 ^b ^e %IA/g
activity uptake in tumor (PC3-pip xenografts; [4]): 27 ± 7 %IA/g
tumor-to-blood ratio (PC3-pip xenografts; [4]): 19 ± 8 ^b
tumor-to-bone ratio (PC3-pip xenografts; [4]): 62 ± 18 ^b ^, ^e
tumor-to-kidney ratio (PC3-pip xenografts; [4]): 1.3 ± 0.5 ^b
tumor-to-liver ratio (PC3-pip xenografts; [4]): 17 ± 7 ^b
tumor-to-lung ratio (PC3-pip xenografts; [4]): 17 ± 6 ^b
tumor-to-muscle ratio (PC3-pip xenografts; [4]): 86 ± 34 ^b
tumor-to-pancreas ratio (PC3-pip xenografts; [4]): 62 ± 24 ^b
tumor-to-salivary gland ratio (PC3-pip xenografts; [4]): 47 ± 19 ^b ^, ^e
tumor-to-small intestines ratio (PC3-pip xenografts; [4]): 22 ± 11 ^b
tumor-to-spleen ratio (PC3-pip xenografts; [4]): 12 ± 5 ^b
tumor-to-stomach ratio (PC3-pip xenografts; [4]): 46 ± 18 ^b ^, ^e
activity in carcass (PC3-pip xenografts; [5]): 3 ± 1 %IA/sample
activity in intestines with content (PC3-pip xenografts; [5]): 11.0 ± 0.5 ^e %IA/sample
activity uptake in blood (PC3-pip xenografts; [5]): 0.14 ± 0.07 %IA/g
activity uptake in bone (PC3-pip xenografts; [5]): 0.07 ± 0.03 ^e %IA/g
activity uptake in kidney (PC3-pip xenografts; [5]): 4 ± 2 ^e %IA/g
activity uptake in liver (PC3-pip xenografts; [5]): 0.18 ± 0.06 %IA/g
activity uptake in lung (PC3-pip xenografts; [5]): 0.21 ± 0.07 %IA/g
activity uptake in muscle (PC3-pip xenografts; [5]): 0.08 ± 0.04 %IA/g
activity uptake in pancreas (PC3-pip xenografts; [5]): 0.1 ± 0.1 %IA/g
activity uptake in salivary gland (PC3-pip xenografts; [5]): 0.14 ± 0.06 ^e %IA/g
activity uptake in small intestines (PC3-pip xenografts; [5]): 0.17 ± 0.03 %IA/g
activity uptake in spleen (PC3-pip xenografts; [5]): 0.3 ± 0.2 %IA/g
activity uptake in stomach (PC3-pip xenografts; [5]): 0.14 ± 0.06 %IA/g
tumor-to-bone ratio (PC3-pip xenografts; [5]): 515 ± 113 ^e
tumor-to-kidney ratio (PC3-pip xenografts; [5]): 10 ± 2 ^e
tumor-to-liver ratio (PC3-pip xenografts; [5]): 222 ± 89 ^e
tumor-to-lung ratio (PC3-pip xenografts; [5]): 178 ± 61 ^e
tumor-to-muscle ratio (PC3-pip xenografts; [5]): 504 ± 195
tumor-to-pancreas ratio (PC3-pip xenografts; [5]): 463 ± 135 ^e
tumor-to-salivary gland ratio (PC3-pip xenografts; [5]): 302 ± 146 ^e
tumor-to-small intestines ratio (PC3-pip xenografts; [5]): 209 ± 46
tumor-to-spleen ratio (PC3-pip xenografts; [5]): 121 ± 47 ^e
tumor-to-stomach ratio (PC3-pip xenografts; [5]): 287 ± 102 ^e
activity in carcass (PC3-pip xenografts; [6]): 3±1 %IA/sample
activity in intestines with content (PC3-pip xenografts; [6]): 11.0±0.5 %IA/sample
activity uptake in blood (PC3-pip xenografts; [6]): 0.14±0.07 %IA/g
activity uptake in bone (PC3-pip xenografts; [6]): 0.07±0.03 %IA/g
activity uptake in kidney (PC3-pip xenografts; [6]): 4±2 %IA/g
activity uptake in liver (PC3-pip xenografts; [6]): 0.18±0.06 %IA/g
activity uptake in lung (PC3-pip xenografts; [6]): 0.21±0.07 %IA/g
activity uptake in muscle (PC3-pip xenografts; [6]): 0.08±0.04 %IA/g
activity uptake in pancreas (PC3-pip xenografts; [6]): 0.1±0.1 %IA/g
activity uptake in salivary gland (PC3-pip xenografts; [6]): 0.14±0.06 %IA/g
activity uptake in small intestines (PC3-pip xenografts; [6]): 0.17±0.03 %IA/g
activity uptake in spleen (PC3-pip xenografts; [6]): 0.3±0.2 %IA/g
activity uptake in stomach (PC3-pip xenografts; [6]): 0.14±0.06 %IA/g
activity uptake in tumor (PC3-pip xenografts; [6]): 35±4 %IA/g
excretion pathway (PC3-pip xenografts; PC3-pip xenografts): predominantly renal
logD (physchem): -2.4 ± 0.1
intact tracer in PBS ([2]; PBS control, 37 °C, n = 3): 97.4 ± 0.9%
intact tracer in murine serum ([2]; mouse, 5 µg/mL): 98.7 ± 0.6%
B max1 (binding maximum) (PSMA; 5 nM tracer, 1:2 model (1:1 for BQ0413)): 492 CPS
Kd (PSMA; 5 nM tracer, 1:2 model (1:1 for BQ0413), read-out: K D1): 0.474 nM
kon (PSMA; 5 nM tracer, 1:2 model (1:1 for BQ0413), read-out: k a1 (association rate)): 27000 M⁻¹ s⁻¹
koff (PSMA; 5 nM tracer, 1:2 model (1:1 for BQ0413), read-out: k d1 (dissociation rate)): 1.2e-05 s⁻¹
B max2 (binding maximum) (PSMA; 5 nM tracer, 1:2 model, second interaction): 272 CPS
Kd (PSMA; 5 nM tracer, 1:2 model, second interaction, read-out: K D2): 3.6 nM
kon (PSMA; 5 nM tracer, 1:2 model, second interaction, read-out: k a2 (association rate)): 49000 M⁻¹ s⁻¹
koff (PSMA; 5 nM tracer, 1:2 model, second interaction, read-out: k d2 (dissociation rate)): 0.00016 s⁻¹
affinity compromised in comparison with [99mTc]Tc-BQ0413 (PSMA; PC3-pip cells): 3–5 fold
Kd (PSMA; as rounded in comparison table, read-out: K D1): 0.5 nM
Kd (PSMA; as rounded in comparison table, read-out: K D2): 3.6 nM
activity uptake by PC3-pip cells (PC3-pip cells [3]; 2 nM tracer): 62 ± 7 % of added activity
activity uptake by PC3-pip cells after presaturation with PSMA-11 (PC3-pip cells [3]; 250-fold excess of nonlabeled PSMA-11, 2 nM tracer): significantly (p < 0.0001) decreased
